Test results from publication PMC8458281, “Computational modeling and experimental validation of the EPI-X4/CXCR4 complex allows rational design of small peptide antagonists” (Communications Biology, 2021).
One block for each molecule: values may come before it.

What was measured:
CXCR4 D97E = test: 12G5 antibody competition, 293T cells transfected with CXCR4 D97E; type: binding, human; settings: IC50 on CXCR4 D97E relative to wt
Protocol: (§1) Fig. 4 The interactions of EPI-X4 and the EPI-X4 derivatives WSC02 and JM#21 with point-mutated CXCR4 were assessed by an antibody competition assay. Amino acid substitutions were introduced in the sequence of CXCR4 by site-directed mutagenesis, cloned into an IRES-eGFP expression vector, and transfected into 293 T cells. Afterward, cells were incubated with serially diluted EPI-X4 (a, b), WSC02 (c, d), or JM#21 (e, f) in presence of a constant concentration of CXCR4 specific antibody (clone 12G5). After 2 h, bound antibody was analyzed by flow cytometry. a, c, e) Representative dose-dependent replacement of 12G5 antibody by peptides. b, d, f) IC50 values were calculated by nonlinear regression. Shown are data derived from at least three individual experiments ± SEM. IC50 values were set to 1000 µM (EPI-X4 and WSC02) or 100 µM (JM#21) if the value exceeds the maximally used concentration. *p ≤ 0.05, ***p ≤ 0.001 (one-way ANOVA for comparison with wt). For IC50 values see Table 1. For all binding curves see also Fig. S8.
(§2) Mutated CXCR4 constructs were transfected into 293 T cells that have a very low endogenous expression level of wild-type CXCR4. Transfected cells were then analyzed for CXCR4 surface expression (Fig. S5a) and EPI-X4 binding using a flow cytometry-based antibody competition assay (Fig. S5b, c)[33]. […]

CXCR4 D97E + V112L = test: 12G5 antibody competition, 293T cells transfected with CXCR4 D97E + V112L; type: binding, human; settings: IC50 on CXCR4 D97E + V112L relative to wt
Protocol: as §1, §2

CXCR4 V112A = test: 12G5 antibody competition, 293T cells transfected with CXCR4 V112A; type: binding, human; settings: IC50 on CXCR4 V112A relative to wt
Protocol: as §1, §2

CXCR4 D262A = test: 12G5 antibody competition, 293T cells transfected with CXCR4 D262A; type: binding, human; settings: IC50 on CXCR4 D262A relative to wt
Protocol: as §1, §2

CXCR4 D97T = test: 12G5 antibody competition, 293T cells transfected with CXCR4 D97T; type: binding, human; settings: IC50 on CXCR4 D97T relative to wt
Protocol: as §1, §2

CXCR4 D187E = test: 12G5 antibody competition, 293T cells transfected with CXCR4 D187E; type: binding, human; settings: IC50 on CXCR4 D187E relative to wt
Protocol: as §1, §2

[1] = test system: CXCR4 D97E + V112A + L41A; test: 12G5 antibody competition, 293T cells transfected with CXCR4 D97E + V112A + L41A; type: binding, human; settings: IC50 on CXCR4 D97E + V112A + L41A relative to wt
Protocol: as §1, §2

CXCR4 D97E + V112A = test: 12G5 antibody competition, 293T cells transfected with CXCR4 D97E + V112A; type: binding, human; settings: IC50 on CXCR4 D97E + V112A relative to wt
Protocol: as §1, §2

[2] = target: T1, CXCR4 D97E + V112A + L41A (human, UniProt P61073-1 1-352, L41A | D97E | V112A); test: flow cytometry on cells; 12G5 antibody competition on 293T cells transiently transfected with CXCR4 wt or mutants (IRES-eGFP vector), eGFP-positive cells gated; serially diluted peptide with a constant concentration of CXCR4 antibody clone 12G5, 2 h; bound antibody read; IC50 by nonlinear regression; settings: one partner purified
T1 construct: human CXCR4, isoform 1 or b; also called L41A plus D97E plus V112A; source: 293T cells, transiently transfected (pcDNA3.1 CXCR4-IRES-eGFP), on cells
T1 sequence (P61073 whole entry L41A/D97E/V112A, canonical isoform): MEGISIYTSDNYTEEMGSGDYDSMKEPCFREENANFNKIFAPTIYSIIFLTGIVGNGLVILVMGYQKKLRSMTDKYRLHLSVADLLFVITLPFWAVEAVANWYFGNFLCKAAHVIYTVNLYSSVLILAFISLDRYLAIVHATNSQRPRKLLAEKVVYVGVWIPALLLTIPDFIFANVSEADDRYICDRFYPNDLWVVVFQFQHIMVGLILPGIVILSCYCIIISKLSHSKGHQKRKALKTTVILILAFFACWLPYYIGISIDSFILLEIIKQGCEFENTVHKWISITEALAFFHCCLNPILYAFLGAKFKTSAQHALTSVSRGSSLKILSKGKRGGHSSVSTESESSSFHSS

[3] = target: T2, C-X-C motif chemokine receptor 4 (CXCR4) on SupT1 cells (human (endogenous in SupT1), UniProt P61073 1-352); test: flow cytometry on cells; 12G5 antibody competition on SupT1 cells; peptides in PBS with APC-conjugated 12G5 at a concentration close to its EC50, 4 °C, 2 h; MFI normalized to PBS control; IC50 by nonlinear regression; settings: one partner purified
T2 construct: CXCR4 as expressed on SupT1 cells; source: endogenous, on SupT1 cells
T2 sequence (P61073 whole entry): as the sequence (P61073 whole entry L41A/D97E/V112A, canonical isoform) above, with A41L, E97D, A112V counted along it

Molecule: IVRWSKKVPCVS [WSC02, first-generation C-terminally truncated 12-mer derivative of EPI-X4 with four substitutions]
Fold change (CXCR4 D97E): 8
Fold change (CXCR4 D97E + V112L): 1.8
Fold change (CXCR4 V112A): 0.6
Fold change (CXCR4 D262A): 0.4
Fold change (CXCR4 D97T): 31
Fold change (CXCR4 D187E): 0.4
Fold change [1]: 5
Fold change (CXCR4 D97E + V112A): 1.5

IC50 [2]: 48.4 µM
IC50 [3]: 2.39 µM
B1: EPI-X4 (Alb408-423) (peptide)
peptide: LVRYTKKVPQVSTPTL
notes: source: synthetic peptide (Fmoc solid-phase synthesis, HPLC-purified)
